Laboratory results as given in patent publication US20250313535A1, “ALPHA 4 BETA 7 INTEGRIN MODULATORS AND USES THEREOF” (DICE MOLECULES SV, INC., priority 2022, published 2025).
Like-named read-outs stand apart in the source and are kept apart here.

Tests used:
α4β1 integrin = α4β1 integrin (Homo sapiens (Human), UniProt P05556+P13612); experiment: Integrin Adhesion Assay: Protocol 5 (VCAM-coated plate, RPMI-8866 cells with stable LOF mutation of the ITGB7 gene); assay type: cell-based
Procedure, shortened: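 RPMI-8866 B cells with CRISPR/Cas9 ITGB7 knockout (clonal, verified by flow cytometry) adhered to VCAM-coated wells for 1 h at 37° C in HEPES/NaCl buffer with 1 mM MnCl2, 0.1 mM CaCl2, 1% BSA, 1% DMSO. Bound cells quantified by CellTiter-Glo luminescence after washing; % inhibition versus DMSO and control, 4-parameter fit.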

α4β7 integrin = α4β7 integrin (Homo sapiens (Human), UniProt P13612+P26010); experiment: Integrin Adhesion Assay: Protocol 4 (MAdCAM-coated plate, RPMI-8866 cells with stable LOF mutation of the ITGB1 gene); assay type: cell-based
Procedure, shortened: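 RPMI-8866 cells with CRISPR/Cas9 knockout of ITGB1 (2×10^6/mL) were added to MAdCAM-coated wells with compound (1% DMSO) in HEPES/NaCl buffer with 1 mM MnCl2, 0.1 mM CaCl2 and 1% BSA, then incubated 1 h at 37 °C. After four washes, adherent cells were quantified by CellTiter-Glo luminescence. Percent inhibition versus DMSO and control compound was fitted to 4-parameter curves.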

[1] = Protocol 5, RPMI-8866 cells with LOF mutation of ITGB7, VCAM, read-out: Mean IC50 α4β1 KO
[2] = Protocol 4, RPMI-8866 cells with LOF mutation of ITGB1, MAdCAM, read-out: Mean IC50 α4β7 KO
[3] = RPMI-8866 cells with stable LOF mutation of the ITGB7 gene, read-out: Mean IC50 α4β1 KO^b
[4] = RPMI-8866 cells with stable LOF mutation of the ITGB1 gene, read-out: Mean IC50 α4β7 KO^a

α4β7 integrin, sequence (P13612 34-1032): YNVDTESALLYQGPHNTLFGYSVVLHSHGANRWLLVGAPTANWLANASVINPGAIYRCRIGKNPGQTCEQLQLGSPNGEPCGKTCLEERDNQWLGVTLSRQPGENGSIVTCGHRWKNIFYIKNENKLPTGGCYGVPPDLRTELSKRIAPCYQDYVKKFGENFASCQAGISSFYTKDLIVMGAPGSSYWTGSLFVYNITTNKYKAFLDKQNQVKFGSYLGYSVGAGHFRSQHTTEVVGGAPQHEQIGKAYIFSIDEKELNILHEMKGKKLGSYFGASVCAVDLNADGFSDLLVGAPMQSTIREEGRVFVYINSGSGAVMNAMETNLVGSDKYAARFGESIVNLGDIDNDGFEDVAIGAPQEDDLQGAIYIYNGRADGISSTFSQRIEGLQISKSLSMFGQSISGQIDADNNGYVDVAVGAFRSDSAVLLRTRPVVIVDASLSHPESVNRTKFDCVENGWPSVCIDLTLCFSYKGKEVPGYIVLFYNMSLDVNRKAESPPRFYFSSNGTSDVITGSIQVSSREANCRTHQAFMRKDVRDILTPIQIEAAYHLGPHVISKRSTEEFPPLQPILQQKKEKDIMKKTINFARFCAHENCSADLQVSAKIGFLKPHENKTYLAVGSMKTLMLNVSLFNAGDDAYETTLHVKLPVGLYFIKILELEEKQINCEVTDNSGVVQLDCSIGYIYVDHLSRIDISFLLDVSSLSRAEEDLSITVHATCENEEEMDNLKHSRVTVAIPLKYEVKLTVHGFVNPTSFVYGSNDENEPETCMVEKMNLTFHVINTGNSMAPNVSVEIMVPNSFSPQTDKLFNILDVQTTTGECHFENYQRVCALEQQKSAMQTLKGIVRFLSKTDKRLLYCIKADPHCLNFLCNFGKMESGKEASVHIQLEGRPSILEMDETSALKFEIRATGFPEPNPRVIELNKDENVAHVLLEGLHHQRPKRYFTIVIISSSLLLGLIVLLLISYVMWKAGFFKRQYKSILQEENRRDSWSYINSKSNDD
α4β7 integrin, sequence (P26010 20-798): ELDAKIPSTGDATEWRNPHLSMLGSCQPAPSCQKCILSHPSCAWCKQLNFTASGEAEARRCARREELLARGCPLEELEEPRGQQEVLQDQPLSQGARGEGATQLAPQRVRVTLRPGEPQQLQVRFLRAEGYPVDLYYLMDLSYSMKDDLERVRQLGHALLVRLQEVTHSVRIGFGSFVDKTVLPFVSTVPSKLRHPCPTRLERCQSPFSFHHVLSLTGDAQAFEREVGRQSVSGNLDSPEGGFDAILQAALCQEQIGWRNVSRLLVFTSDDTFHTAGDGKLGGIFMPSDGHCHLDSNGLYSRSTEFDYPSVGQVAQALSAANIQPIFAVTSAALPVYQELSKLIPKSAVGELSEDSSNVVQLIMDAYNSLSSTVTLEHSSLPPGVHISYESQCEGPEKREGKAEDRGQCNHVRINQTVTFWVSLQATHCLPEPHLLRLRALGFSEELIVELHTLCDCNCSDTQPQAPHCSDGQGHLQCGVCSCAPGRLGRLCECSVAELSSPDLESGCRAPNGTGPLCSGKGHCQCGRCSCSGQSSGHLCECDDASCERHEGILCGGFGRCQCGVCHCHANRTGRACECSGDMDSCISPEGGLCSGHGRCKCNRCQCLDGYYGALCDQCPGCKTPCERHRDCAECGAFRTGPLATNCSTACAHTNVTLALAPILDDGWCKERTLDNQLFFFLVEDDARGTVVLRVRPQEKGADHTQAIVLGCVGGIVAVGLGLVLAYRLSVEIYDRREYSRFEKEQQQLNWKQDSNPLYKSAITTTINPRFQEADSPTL
α4β1 integrin, sequence (P13612 34-1032): as the sequence (P13612 34-1032) above
α4β1 integrin, sequence (P05556 21-798): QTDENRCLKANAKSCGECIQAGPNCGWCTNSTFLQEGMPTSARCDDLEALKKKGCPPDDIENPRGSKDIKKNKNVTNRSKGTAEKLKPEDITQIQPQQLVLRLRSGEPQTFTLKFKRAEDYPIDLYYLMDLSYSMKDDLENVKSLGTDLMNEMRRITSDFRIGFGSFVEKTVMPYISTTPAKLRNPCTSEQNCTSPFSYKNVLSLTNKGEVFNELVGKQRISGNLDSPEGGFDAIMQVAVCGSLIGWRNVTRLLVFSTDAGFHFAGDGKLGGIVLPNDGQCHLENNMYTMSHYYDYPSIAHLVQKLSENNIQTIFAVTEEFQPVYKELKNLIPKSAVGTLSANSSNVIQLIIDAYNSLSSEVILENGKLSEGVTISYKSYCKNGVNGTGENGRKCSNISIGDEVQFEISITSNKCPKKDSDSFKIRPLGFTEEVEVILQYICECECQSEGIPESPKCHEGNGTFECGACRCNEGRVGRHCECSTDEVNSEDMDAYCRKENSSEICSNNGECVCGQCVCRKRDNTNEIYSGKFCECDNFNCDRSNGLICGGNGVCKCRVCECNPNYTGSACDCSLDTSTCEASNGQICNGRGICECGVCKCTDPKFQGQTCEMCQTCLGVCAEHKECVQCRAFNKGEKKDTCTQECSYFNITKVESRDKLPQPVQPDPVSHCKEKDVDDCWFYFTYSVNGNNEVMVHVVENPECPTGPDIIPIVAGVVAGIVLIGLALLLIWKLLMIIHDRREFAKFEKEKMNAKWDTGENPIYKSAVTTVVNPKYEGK

SMILES | IC50 (α4β1 integrin; [1]) [nM] | IC50 (α4β7 integrin; [2]) [nM] | IC50 (α4β1 integrin; [3]) [nM] | IC50 (α4β7 integrin; [4]) [nM]
COc1cccc(CCN2CCC[C@@H](F)C2)c1-c1cccc2c(C[C@H](NC(=O)C3(C(F)(F)F)CCN(CC(F)F)CC3)C(=O)O)cccc12 [Compound 970] | 100 to 1000 | < 10 |  | 
CCC1(C(=O)N[C@@H](Cc2cccc3c(-c4ncc(CN5CCCCC5)c5ccccc45)cccc23)C(=O)O)CCN(CC(F)(F)F)CC1 [Compound 676] |  |  | > 1000 | < 10
CCc1c(CN(C)C)ccc(OC)c1-c1cccc2c(C[C@H](NC(=O)c3c(C)cccc3F)C(=O)O)cccc12 [Compound 1044] | 100 to 1000 | < 10 |  | 
COc1cccc(CN2CCC(F)CC2)c1-c1cccc2c(C[C@H](NC(=O)c3c(C)cccc3F)C(=O)O)cccc12 [Compound 1024] | > 1000 | 10 to 100 |  | 
O=C(O)[C@H](Cc1cccc2c(-c3nccc4ccc(CN5CCCCC5)cc34)cccc12)NC(=O)C1(C(F)(F)F)CCN(CC(F)(F)F)CC1 [Compound 786] | > 1000 | 10 to 100 |  | 
O=C(O)[C@H](Cc1cccc2c(-c3ncc(CN4CC5CC(C4)O5)c4ccccc34)cccc12)NC(=O)C1(C(F)(F)F)CCN(CC(F)(F)F)CC1 [Compound 867] | > 1000 | < 10 |  | 
CC(C)(C)C1CCN(CCc2cnc(-c3cccc4c(C[C@H](NC(=O)C5(C(F)(F)F)CCN(CC(F)(F)F)CC5)C(=O)O)cccc34)c3ccccc23)CC1 [Compound 981] | > 1000 | < 10 |  | 
O=C(O)[C@H](Cc1cccc2c(-c3c(C(F)(F)F)ccc4cccnc34)cccc12)NC(=O)C1(C(F)(F)F)CCN(CC(F)(F)F)CC1 [Compound 524] |  |  | > 1000 | 10 to 100
O=C(O)[C@H](Cc1cccc2c(-c3nccc4c(CN5CCCC5)cccc34)cccc12)NC(=O)C1(C(F)(F)F)CCN(CC(F)(F)F)CC1 [Compound 553] |  |  | 100 to 1000 | < 10
COc1ccc2ccccc2c1-c1cccc2c(C[C@H](NC(=O)C3(C(F)(F)F)CCN(CC(F)(F)F)CC3)C(=O)O)cccc12 [Compound 765] | > 1000 | 10 to 100 |  | 
COc1ccc(CN(C)C)c(OC)c1-c1cccc2c(C[C@H](NC(=O)C3(C(F)(F)F)CCN(CC(F)(F)F)CC3)C(=O)O)cccc12 [Compound 455] |  |  | 100 to 1000 | < 10
COc1cccc(CCN2CCC(C)C(F)(F)CC2)c1-c1cccc2c(C[C@H](NC(=O)C3(C(F)(F)F)CCN(CC(F)(F)F)CC3)C(=O)O)cccc12 (some centres unmarked) [Compound 972] | 100 to 1000 | < 10 |  | 
COc1ccc(CN2CCN(C3CCC3)CC2)c(OC)c1-c1cccc2c(C[C@H](NC(=O)c3c(C)cccc3F)C(=O)O)cccc12 [Compound 656] |  |  | 100 to 1000 | < 10
COc1ccc(CN2CCCC(C)(C)C2)c(OC)c1-c1cccc2c(C[C@H](NC(=O)C3(C(F)(F)F)CCN(CC(F)(F)F)CC3)C(=O)O)cccc12 [Compound 791] | > 1000 | < 10 |  | 
O=C(O)[C@H](Cc1cccc2c(-c3ncc(CN4CC5CC(C5)C4)c4ccccc34)cccc12)NC(=O)C1(C(F)(F)F)CCN(CC(F)F)CC1 [Compound 907] | > 1000 | < 10 |  | 
COc1c(CN2CCCCC2)ccc(C(F)(F)F)c1-c1cccc2c(C[C@H](NC(=O)C3(C(F)(F)F)CCN(CC(F)(F)F)CC3)C(=O)O)cccc12 [Compound 662] |  |  | > 1000 | 10 to 100
O=C(O)[C@H](Cc1cccc2c(-c3cc(CN4CCCC4)cc4ccncc34)cccc12)NC(=O)C1(C(F)(F)F)CCN(C2COC2)CC1 [Compound 620] |  |  | > 1000 | < 10
O=C(O)[C@H](Cc1cccc2c(-c3nccc4ccc(CCCN5CCC(F)(F)CC5)cc34)cccc12)NC(=O)C1(C(F)(F)F)CCN(CC(F)(F)F)CC1 [Compound 539] |  |  | > 1000 | < 10
COc1cncc(OC)c1-c1cccc2c(C[C@H](NC(=O)c3c(C)cccc3F)C(=O)O)cccc12 [Compound 477] |  |  | 100 to 1000 | < 10
O=C(O)[C@H](Cc1cccc2c(-c3ncc(CN4CC5(CC5)C4)c4ccccc34)cccc12)NC(=O)C1(C(F)(F)F)CCN(CC(F)(F)F)CC1 [Compound 887] | > 1000 | < 10 |  | 
COc1ccc(CN2CC(OC)C2)c(OC)c1-c1cccc2c(C[C@H](NC(=O)c3c(C)cccc3F)C(=O)O)cccc12 [Compound 638] |  |  | 100 to 1000 | < 10
Cn1c(=O)c(-c2cccc3c(C[C@H](NC(=O)C4(C(F)(F)F)CCN(CC(F)F)CC4)C(=O)O)cccc23)c(C(F)(F)F)c2cc(CN3CCC(F)CC3)ccc21 [Compound 834] | 10 to 100 | < 10 |  | 
